In PubChem BioAssay AID256 (DTP/NCI, 2004):
Values joined by “and” are separate entries in the source; they are usually repeats but may differ in a detail not shown here. Equal entries are not always repeated. Toxic doses and inconclusive results are not listed. How the source made its calls: active means survival T/C of 150% or more; inactive means T/C below 125% in these data.

System: CD2F1 mice, L1210 leukemia ip, survival T/C
Assay: NCI In Vivo Anticancer Drug Screen. Data for tumor model L1210 Leukemia (intraperitoneal) in CD2F1 (CDF1) mice
Conditions: endpoint: mean survival time, higher = longer survival
Procedure, shortened: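 Ratio T/C, where T is the treated-group value and C the vehicle-dosed control value, from mice implanted with a transplantable tumor.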

[1] = dose: 12.5 mg/kg/injection, schedule: Q01DX009 (ip), vehicle: saline
[2] = dose: 25.0 mg/kg/injection, schedule: Q01DX009 (ip), vehicle: saline
[3] = dose: 50.0 mg/kg/injection, schedule: Q01DX009 (ip), vehicle: saline
[4] = dose: 100.0 mg/kg/injection, schedule: Q01DX009 (ip), vehicle: Klucel (hydroxypropylcellulose) (HPC)
[5] = dose: 200.0 mg/kg/injection, schedule: Q01DX009 (ip), vehicle: Klucel (hydroxypropylcellulose) (HPC)
[6] = dose: 400.0 mg/kg/injection, schedule: Q01DX009 (ip), vehicle: Klucel (hydroxypropylcellulose) (HPC)
[7] = dose: 100.0 mg/kg/injection, schedule: Q01DX009 (ip), vehicle: saline with Tween-80
[8] = dose: 100.0 mg/kg/injection, schedule: Q04DX003 (ip), vehicle: saline with Tween-80
[9] = dose: 200.0 mg/kg/injection, schedule: Q01DX009 (ip), vehicle: saline with Tween-80
[10] = dose: 200.0 mg/kg/injection, schedule: Q04DX003 (ip), vehicle: saline with Tween-80
[11] = dose: 400.0 mg/kg/injection, schedule: Q04DX003 (ip), vehicle: saline with Tween-80
[12] = dose: 50.0 mg/kg/injection, schedule: Q01DX009 (ip), vehicle: saline with Tween-80

Measured: T/C

CN(C)CC(Cl)CCl (configuration not stated)
inactive: [1] 98 % of control | [2] 98 % of control | [3] 104 % of control | dose: 100.0 mg/kg/injection, schedule: Q01DX009 (ip), vehicle: saline 105 % of control and 108 % of control | dose: 200.0 mg/kg/injection, schedule: Q01DX009 (ip), vehicle: saline 116 % of control and 101 % of control

CC(C)CCCCCc1ccc(OCCOc2ccc(C(=O)Nc3ccc(S(=O)(=O)F)cc3[N+](=O)[O-])cc2)cc1
inactive: [4] 91 % of control | [5] 92 % of control | [6] 87 % of control

Cc1c(Cl)cccc1NS(=O)(=O)c1ccccc1
inactive: [7] 108 % of control | [8] 92 % of control | [9] 103 % of control | [10] 99 % of control | dose: 400.0 mg/kg/injection, schedule: Q01DX009 (ip), vehicle: saline with Tween-80 103 % of control | [11] 99 % of control

CC1CCC(N=C2OCCN2N=O)CC1 (configuration not stated)
inactive: dose: 3.12 mg/kg/injection, schedule: Q01DX001 (ip), vehicle: water 97 % of control | dose: 6.25 mg/kg/injection, schedule: Q01DX001 (ip), vehicle: water 96 % of control | dose: 12.5 mg/kg/injection, schedule: Q01DX001 (ip), vehicle: water 98 % of control | dose: 25.0 mg/kg/injection, schedule: Q01DX001 (ip), vehicle: water 94 % of control | dose: 50.0 mg/kg/injection, schedule: Q01DX001 (ip), vehicle: water 94 % of control | dose: 100.0 mg/kg/injection, schedule: Q01DX001 (ip), vehicle: water 108 % of control

O=C1/C(=C/c2ccccc2)CCCC1/C=C/c1ccccc1 (configuration not stated)
inactive: [8] 100 % of control | [10] 100 % of control | [11] 97 % of control

COC(=O)C1C2CCC(C2)C1C (configuration not stated)
inactive: dose: 25.0 mg/kg/injection, schedule: Q01DX009 (ip), vehicle: saline with Tween-80 93 % of control | [12] 104 % of control | [7] 98 % of control | [8] 90 % of control

CC(COP(N)(=O)N(CCCl)CCCl)C(C)OCc1ccccc1 (configuration not stated)
inactive: dose: 15.62 mg/kg/injection, schedule: Q01DX001 (ip), vehicle: DMSO 101 % of control | dose: 31.3 mg/kg/injection, schedule: Q01DX001 (ip), vehicle: DMSO 106 % of control | dose: 62.5 mg/kg/injection, schedule: Q01DX001 (ip), vehicle: DMSO 101 % of control | dose: 125.0 mg/kg/injection, schedule: Q01DX001 (ip), vehicle: DMSO 103 % of control | dose: 250.0 mg/kg/injection, schedule: Q01DX001 (ip), vehicle: DMSO 95 % of control | dose: 500.0 mg/kg/injection, schedule: Q01DX001 (ip), vehicle: DMSO 93 % of control

CCCCC1CCCCCCc2[nH]c(/C=C3\N=C(c4ccc[nH]4)C=C3OC)cc21 (configuration not stated)
inactive: dose: 0.12 mg/kg/injection, schedule: Q01DX009 (ip), vehicle: saline with Tween-80 103 % of control | dose: 0.25 mg/kg/injection, schedule: Q01DX009 (ip), vehicle: saline with Tween-80 107 % of control | dose: 0.5 mg/kg/injection, schedule: Q01DX009 (ip), vehicle: saline with Tween-80 116 % of control | dose: 1.0 mg/kg/injection, schedule: Q01DX009 (ip), vehicle: saline with Tween-80 105 % of control | dose: 2.0 mg/kg/injection, schedule: Q01DX009 (ip), vehicle: saline with Tween-80 106 % of control

CC(C)(C)c1cc(/C=N/NC(=O)CNC(=O)NCc2ccco2)cc(C(C)(C)C)c1O
inactive: [12] 93 % of control | [7] 101 % of control | [9] 104 % of control

C=C(Br)CNC(=O)C(C)C
inactive: dose: 5.0 mg/kg/injection, schedule: Q01DX009 (ip), vehicle: saline with Tween-80 98 % of control | dose: 10.0 mg/kg/injection, schedule: Q01DX009 (ip), vehicle: saline with Tween-80 100 % of control | dose: 20.0 mg/kg/injection, schedule: Q01DX009 (ip), vehicle: saline with Tween-80 100 % of control

CC(C)(C)C(=O)CC(=O)C(C)(C)C.CC(C)(C)C(=O)CC(=O)C(C)(C)C.CC(C)(C)C(=O)CC(=O)C(C)(C)C.[La]
inactive: [8] 94 % of control | [10] 101 % of control | [11] 97 % of control

O=C(Nc1ccccc1)Nc1cc(Cl)ccc1O
inactive: dose: 100.0 mg/kg/injection, schedule: Q01DX001 (ip), vehicle: saline with Tween-80 98 % of control | dose: 200.0 mg/kg/injection, schedule: Q01DX001 (ip), vehicle: saline with Tween-80 98 % of control | dose: 400.0 mg/kg/injection, schedule: Q01DX001 (ip), vehicle: saline with Tween-80 91 % of control

O=N[O-].[Co].[NH2-].[NH2-].[NH2-].[NH2-].[NH2-]
inactive: [1] 103 % of control | dose: 25.0 mg/kg/injection, schedule: Q01DX003 (ip), vehicle: saline 93 % of control | [2] 103 % of control | dose: 50.0 mg/kg/injection, schedule: Q01DX003 (ip), vehicle: saline 100 % of control | [3] 105 % of control

CCSC(=O)CC
inactive: [7] 93 % of control | [9] 98 % of control

c1ccc(CNCCCNCc2ccccn2)nc1
inactive: dose: 100.0 mg/kg/injection, schedule: Q01DX001 (ip), vehicle: saline 100 % of control | dose: 200.0 mg/kg/injection, schedule: Q01DX001 (ip), vehicle: saline 100 % of control

O=c1[nH]c(SCc2ccc(Cl)cc2)nc(-c2ccc(Cl)cc2)c1CCO
inactive: [4] 87 % of control | [5] 87 % of control | [6] 87 % of control

Cc1c(C(=O)O)nc(/C=C/C(Cl)(Cl)Cl)[nH]c1=O
inactive: dose: 25.0 mg/kg/injection, schedule: Q01DX005 (ip), vehicle: other 104 % of control | dose: 50.0 mg/kg/injection, schedule: Q01DX005 (ip), vehicle: other 103 % of control | dose: 100.0 mg/kg/injection, schedule: Q01DX005 (ip), vehicle: other 97 % of control | dose: 200.0 mg/kg/injection, schedule: Q01DX005 (ip), vehicle: other 106 % of control | dose: 400.0 mg/kg/injection, schedule: Q01DX005 (ip), vehicle: other 95 % of control
